Measurements reported in US20110105623A1 (Biogenic Innovations, LLC, priority 2009, published 2011).

How the values were obtained:
[1] = test system: Streptococcus Pneumonia (#10341); assay: Bacterial viability by bioluminescent ATP assay
Escherichia coli = assay: USP <51> AET in cosmetic cream/composition; format: cell-based; conditions: for AET microorganism count: 48 hrs-28 days; for Log Reduction from Initial Microorganism Inoculum: 14, 28 Days
[2] = test system: Acidophilus plus Bifidus milk microorganisms; assay: Growth in Acidophilus plus Bifidus milk fortified with MSM; conditions: A/B milk […] MSM
Description: Then samples were evaluated every 7 days for a total of 28 days. […] The milks were bought at a local store. The Acidophilus milk was low fat (Darigold). The Acidophilus plus Bifidus milk contained 2% milkfat (Lucerne). […] The working solutions were held at 4° C. during the study.

Bifidobacterium bifidum = assay: Probiotic growth in media supplemented with MSM; format: cell-based; design: unit not given here
From the text: Plates were then counted. […] Data are presented in Cfu/mL.

Methylsulfonylmethane [MSM]
IC50 [1]: 15.97% | reduced viability by ([1]; 5% MSM alone): approximately 5% | AET microorganism count (Escherichia coli; 10% MSM in Preservative Free Cosmetic Composition #1, 48 hours after inoculation): 5.4 × 10^4 | AET microorganism count (Escherichia coli; 10% MSM in Preservative Free Cosmetic Composition #1, 7 days after inoculation): <10 | AET microorganism count (Escherichia coli; 10% MSM in cosmetic cream without preservative): <10 | Log Reduction from Initial Microorganism Inoculum (Escherichia coli; 10% MSM in preservative-free jojoba cream): 5.7 log | Log Reduction from Initial Microorganism Inoculum (Escherichia coli; 10% MSM, Composition #1): 5.8 log | Log Reduction from Initial Microorganism Inoculum (Escherichia coli; 10% MSM, Composition #2): 5.8 log | Log Growth of Lactobacillus acidophilus in Milk fortified with MSM ([2]; Day 7): 10.42 logs | Log Growth of Lactobacillus acidophilus in Milk fortified with MSM ([2]; Day 21): 5.37 logs | Log Growth of Lactobacillus acidophilus in Milk fortified with MSM ([2]; Day 28): 3.94 logs | Log Growth of Lactobacillus acidophilus in Milk fortified with MSM ([2]; hour 0): 6.41 logs | Log Growth of Lactobacillus acidophilus in Milk fortified with MSM ([2]; hour 8): 8.67 logs | Log Growth of Lactobacillus acidophilus in Milk fortified with MSM ([2]; hour 24): 9.16 logs | Log Growth of Lactobacillus acidophilus in Milk fortified with MSM ([2]; hour 32): 8.87 logs | Log Growth of Lactobacillus acidophilus in Milk fortified with MSM ([2]; hour 48): 8.3 logs | Log Growth of Lactobacillus acidophilus in Milk fortified with MSM ([2]; hour 56): 8.56 logs | Log Growth of Lactobacillus acidophilus in Milk fortified with MSM ([2]; hour 72): 8.45 logs | Log Growth of Lactobacillus acidophilus in Milk fortified with MSM ([2]; hour 80): 9.82 logs | Log Growth of Lactobacillus acidophilus in Milk fortified with MSM ([2]; hour 96): 8.61 logs | Log Growth of Lactobacillus acidophilus in Milk fortified with MSM ([2]; hour 104): 8.92 logs | Growth of Bifidobacteruim bifidum (Bifidobacterium bifidum; 0.125% MSM, 0 h): 1.64 | Growth of Bifidobacteruim bifidum (Bifidobacterium bifidum; 0.125% MSM, 8 h): 1.73 | Growth of Bifidobacteruim bifidum (Bifidobacterium bifidum; 0.125% MSM, 16 h): 6.55 | Growth of Bifidobacteruim bifidum (Bifidobacterium bifidum; 0.125% MSM, 24 h): 2.70 | Growth of Bifidobacteruim bifidum (Bifidobacterium bifidum; 0.125% MSM, 32 h): 3.37 | Growth of Bifidobacteruim bifidum (Bifidobacterium bifidum; 0.125% MSM, 40 h): 4.19 | Growth of Bifidobacteruim bifidum (Bifidobacterium bifidum; 0.125% MSM, 48 h): 6.41 | Growth of Bifidobacteruim bifidum (Bifidobacterium bifidum; 0.125% MSM, 56 h): 9.97 | Growth of Bifidobacteruim bifidum (Bifidobacterium bifidum; 0.125% MSM, 64 h): 11.34 | Growth of Bifidobacteruim bifidum (Bifidobacterium bifidum; 0.125% MSM, 72 h): 10.00 | Growth of Bifidobacteruim bifidum (Bifidobacterium bifidum; 0.2% MSM, 0 h): 1.82 | Growth of Bifidobacteruim bifidum (Bifidobacterium bifidum; 0.2% MSM, 8 h): 2.08 | Growth of Bifidobacteruim bifidum (Bifidobacterium bifidum; 0.2% MSM, 16 h): 5.22 | Growth of Bifidobacteruim bifidum (Bifidobacterium bifidum; 0.2% MSM, 24 h): 6.15 | Growth of Bifidobacteruim bifidum (Bifidobacterium bifidum; 0.2% MSM, 32 h): 5.03 | Growth of Bifidobacteruim bifidum (Bifidobacterium bifidum; 0.2% MSM, 40 h): 8.14 | Growth of Bifidobacteruim bifidum (Bifidobacterium bifidum; 0.2% MSM, 48 h): 8.55 | Growth of Bifidobacteruim bifidum (Bifidobacterium bifidum; 0.2% MSM, 56 h): 9.00 | Growth of Bifidobacteruim bifidum (Bifidobacterium bifidum; 0.2% MSM, 64 h): 10.19 | Growth of Bifidobacteruim bifidum (Bifidobacterium bifidum; 0.2% MSM, 72 h): 9.10 | Growth of Bifidobacteruim bifidum (Bifidobacterium bifidum; 0.50% MSM, 0 h): 1.85 | Growth of Bifidobacteruim bifidum (Bifidobacterium bifidum; 0.50% MSM, 8 h): 1.99 | Growth of Bifidobacteruim bifidum (Bifidobacterium bifidum; 0.50% MSM, 16 h): 6.53 | Growth of Bifidobacteruim bifidum (Bifidobacterium bifidum; 0.50% MSM, 24 h): 3.14 | Growth of Bifidobacteruim bifidum (Bifidobacterium bifidum; 0.50% MSM, 32 h): 3.52 | Growth of Bifidobacteruim bifidum (Bifidobacterium bifidum; 0.50% MSM, 40 h): 4.62 | Growth of Bifidobacteruim bifidum (Bifidobacterium bifidum; 0.50% MSM, 48 h): 4.51 | Growth of Bifidobacteruim bifidum (Bifidobacterium bifidum; 0.50% MSM, 56 h): 6.05 | Growth of Bifidobacteruim bifidum (Bifidobacterium bifidum; 0.50% MSM, 64 h): 9.55 | Growth of Bifidobacteruim bifidum (Bifidobacterium bifidum; 0.50% MSM, 72 h): 7.52 | Growth of Bifidobacteruim bifidum (Bifidobacterium bifidum; 1% MSM, 0 h): 1.48 | Growth of Bifidobacteruim bifidum (Bifidobacterium bifidum; 1% MSM, 8 h): 1.70 | Growth of Bifidobacteruim bifidum (Bifidobacterium bifidum; 1% MSM, 16 h): 6.81 | Growth of Bifidobacteruim bifidum (Bifidobacterium bifidum; 1% MSM, 24 h): 2.75 | Growth of Bifidobacteruim bifidum (Bifidobacterium bifidum; 1% MSM, 32 h): 3.37 | Growth of Bifidobacteruim bifidum (Bifidobacterium bifidum; 1% MSM, 40 h): 3.48 | Growth of Bifidobacteruim bifidum (Bifidobacterium bifidum; 1% MSM, 48 h): 3.90 | Growth of Bifidobacteruim bifidum (Bifidobacterium bifidum; 1% MSM, 56 h): 8.32 | Growth of Bifidobacteruim bifidum (Bifidobacterium bifidum; 1% MSM, 64 h): 8.02 | Growth of Bifidobacteruim bifidum (Bifidobacterium bifidum; 1% MSM, 72 h): 9.52 | Growth of Bifidobacteruim bifidum (Bifidobacterium bifidum; 5% MSM, 0 h): 1.00 | Growth of Bifidobacteruim bifidum (Bifidobacterium bifidum; 5% MSM, 8 h): 2.29 | Growth of Bifidobacteruim bifidum (Bifidobacterium bifidum; 5% MSM, 16 h): 6.71 | Growth of Bifidobacteruim bifidum (Bifidobacterium bifidum; 5% MSM, 24 h): 5.72 | Growth of Bifidobacteruim bifidum (Bifidobacterium bifidum; 5% MSM, 32 h): 10.32 | Growth of Bifidobacteruim bifidum (Bifidobacterium bifidum; 5% MSM, 40 h): 12.02 | Growth of Bifidobacteruim bifidum (Bifidobacterium bifidum; 5% MSM, 48 h): 10.54 | Growth of Bifidobacteruim bifidum (Bifidobacterium bifidum; 5% MSM, 56 h): 10.92 | Growth of Bifidobacteruim bifidum (Bifidobacterium bifidum; 5% MSM, 64 h): 12.04
